Measured values as given in patent publication US20220088225A1, “VIRAL TRANSDUCTION USING POLOXAMINES” (SIRION Biotech GmbH, priority 2018, published 2022).

System: A2780 cells
Test: Lentiviral transduction of adherent A2780 cells, Luciferase-expressing lentivirus, luminescence (RLU)
Assay type: cell-based, human
Description: Human ovarian carcinoma cells A2780 (Sigma Aldrich) and human lung adenocarcinoma cells NCl H1838 (ATTC) were grown in RPMI 1640 medium supplemented with 10% (vol/vol) fetal calf serum (FCS; Biochrom) and 2 mM L-glutamine (PAN Biotech).
The lentiviral transduction vectors p-Ubic-Luc2-IRES-Puro and p-CMV-copGFP-IRES-Puro allow expression of Luciferase driven by Ubic promoter or copGFP by CMV promoter, respectively. Replication-defective lentiviral particles were produced by transient co-transduction of HEK293-TN cells in a T75 flask with 10 μg of packaging plasmids pMDL, pVSV-G, pRev (Roche) and 2 μg of transduction vector using Lipofectamine 2000 (Life Technologies) as transduction reagent according to the manufacturer's instructions. […]
To quantify total viral transgene expression by Luciferase, 100 μl Steady-Glo reagent (Promega) was added to the cells 3 days after viral transduction. The plate with the cells was put into a Tecan Infinite M200 plate reader and shaken for 30 seconds. After incubation for 10 minutes at room temperature, luminescence signal was measured by the plate reader. […]
As controls virus only (with H2O instead of adjuvant), or […] Polybrene was added to the wells before transduction. […] Three days post transduction the efficiency of transduction was assessed by measuring luciferase activity on a plate reader. Results are presented in relative luminescence units (RLU). […]

Substance: Protamine sulfate
- increase of total transgene expression compared to virus only (5 μg/ml Protamine sulfate alone): 1.14 fold
- increase of total transgene expression compared to virus only (40 μg/ml Protamine sulfate alone): 2.08 fold
